This note sets out measurements from publication PMC8838787, “The Antiproliferative and Apoptotic Effects of a Novel Quinazoline Carrying Substituted-Sulfonamides: In Vitro and Molecular Docking Study” (Molecules, 2022).

Each structure is given as a SMILES string.

One test has as its system A549 (lung) cancer cells. As to the kind of experiment: MTT cell viability assay, A549. In kind it is cell-based. To be noted: average ± SD (n = 3). How it is done: (§1) Compounds 4a–n were subjected to the cytotoxicity screening of the cell lines MCF-7 (breast), LoVo (colon), HepG2 (liver) and A549 (lung) carcinoma cells as well as HUVEC normal cell lines. The MTT assay was employed to assess cytotoxicity after 48 h of treatment with different concentrations of each compound and doxorubicin was used as a reference drug. The results were presented in Table 1 as growth inhibitory concentration (IC50 values).
(§2) Cell viability was determined using 3-(4,5-dimethylthiazol-2-yl)-2,5-diphenyl tetrazolium bromide (MTT) assay as stated previously. In brief, A549 (lung), HepG2 (liver), LoVo (colon), MCF-7 (breast) cancer cells as well as normal cells (HUVEC) were seeded in 96-well plates (10^5 per well) and compounds were added in a different final concentration. All cells were treated for 48 h, and then 10μL of MTT reagent (5 mg/mL) was added to each well and further incubated for 4 h. Thereafter, 0.1 mL of acidified isopropanol was added to solubilize formazan product and the developed color was measured at 570 nm in Microplate ELISA Reader (BioTek, Elx-800, Winooski, VT, USA). The IC50 values (concentration required for 50% inhibition of cell viability) were calculated using dose response curve. Cell viability was calculated as = (Ab Treated/Ab Control) × 100.
(§3) The A549, HepG2, LoVo and MCF-7 cancer cell lines were obtained from the German Collection of Microorganisms and Cell Cultures (DSMZ) (Braunschweig, Germany). For Human umbilical vein endothelial cells (HUVEC cells), it was purchased from American Type Culture Collection (16549; Cat no. PCS-100-010; ATTCC, Manassas, VA, USA).
In general terms: Tetrazolium assays rely on reduction of a dye to a coloured formazan, in cell work by metabolically active cells.

The test system of test [1] is HepG2 (liver) cancer cells. As to the kind of experiment: MTT cell viability assay, HepG2. In kind it is cell-based. The settings on record: Homo sapiens, 48 h, average ± SD (n = 3). How it is done: as §1, §2, §3
Test [2] concerns LoVo (colon) cancer cells. The test is described as follows: MTT cell viability assay, LoVo. The test is classed as cell-based. To be noted: Homo sapiens, 48 h, average ± SD (n = 3). How it is done:
as §1, §2, §3

The subject of a further test is MCF-7 cells. The test is described as follows: Annexin V-FITC/PI apoptosis detection. The test is classed as cell-based, human. The settings on record: 24 h, mean ± SD; for early apoptotic cells: untreated 1.05 ± 0.07%; for late apoptotic cells: control 1.75 ± 0.07%. The text has this:
In addition to cell cycle arrest, apoptosis is another important anticancer process that inhibits cancer cell proliferation. Therefore, we further used a double labeling staining with Annexin V-FITC and PI to investigate apoptotic cell death. Phosphatidylserine exposure on the cell surface is a hallmark of early and late apoptotic cells, which can be easily identified with Annexin V-FITC [27].
Apoptotic cells were detected using Annexin V-FITC/PI staining protocol (BioLegend, San Diego, CA, USA) according to the manufacturer’s recommendations. Briefly, MCF-7 cells were incubated for 24 h with the different doses of promising compounds 4d and 4f. The cells were then harvested, washed twice with cold PBS and re-suspended with 1× Annexin V binding buffer (100 µL). Thereafter, cells were transferred into flow cytometry tube and stained with 5 μL of Annexin V- FITC and 5 μL PI for 15 min at room temperature in the dark. The cells were processed for apoptosis using a FACS Scan Flow Cytometer (Cytomics FC 500; Beckman Coulter, Brea, CA, USA) and analyzed using CXP software V. 3.0.

In a further test the test system is caspase 7. The test is described as follows: Western blot, caspase 7 protein. In kind it is cell-based, human. The settings on record: 24 h, in comparison to the control. The text has this: (§4) We next used reverse transcription polymerase chain reaction (RT-PCR) and Western blot analysis to look at Bax (proapoptotic), Bcl-2 (antiapoptotic) and caspase 7 (executioner caspase) expression at gene and protein level as an additional marker of apoptosis occurrence. In fact, apoptotic cell death is mostly directed by the levels of Bcl-2 family, whether they are pro-apoptotic or antiapoptotic and targeting these molecules as a therapeutic strategy is continuously under development. As predicted, we observed an upregulation in the expression of Bax in MCF-7 treated cells to (1.7-, 2- and 2.4-fold) with compound 4d and to (1.2-, 1.4- and 1.6-fold) with compound 4f at (1.25, 2.5 and 5 µM) respectively (Figure 6). […] This shifting in Bax to Bcl-2 ratio usually started caspases activation which plays a critical role in apoptosis execution. Among all caspases, caspase 7 is considered as one of the most crucial executioner caspases that mediate cell death, and its expression strongly correlates with apoptosis stimulation.
MCF-7 cells were plated in six well plates at the density of 0.5 × 10^6 and kept for adherence for overnight. On the next day, complete media was replaced with the fresh one and treated the cells with compounds 4d and 4f for 24 h at various concentrations. After 24 h of treatment, cells were harvested and washed twice with 1× PBS before adding the lysis buffer (20 mM Tris pH 7.5, 150 mM Nacl, 1 mM Na2EDTA, 1 mM EGTA, 1% Triton X100, 1 μg/mL Leupeptin and 100 µM phenylmethylsulfonyl fluoride—PMSF) and kept it for 1 h on ice, with intermittent vortex mixing every 10 min. The samples were centrifuged at 13,000 rpm at 4 °C for 15 min and then the supernatants were transferred into new tubes. Total protein was measured by using Bio-Rad Bradford kit and then 35 µg of the total protein was run on a 12% SDS-PAGE and transferred to a nitrocellulose membrane. The membrane was blocked with 5% BSA in TBST (150 mM Nacl, 20 mM Tris base and 0.1% Tween 20) for 2 h at room temperature and then washed three times with TBST buffer. Then the membrane was incubated with the desired antibodies (p53, Bcl-2, Bax, caspase7 and β-actin) (1:200, Santa Cruz Biotecnology, Inc., Dallas, TX, USA) and kept on a rocker at 4 °C overnight. On the next day, the membrane was washed three times with TBST buffer and then incubated with horseradish peroxidase-conjugated secondary antibody (1:3000) for 1 h at room temperature. After incubation, membranes were washed three times with TBST buffer and then were ready for immunodetection. For immunodetection, membranes were incubated with ECL Western blotting detecting reagents (Amersaham Pharmacia Biotech Inc., Zurich, Switzerland) and then bands were obtained by exposing to X-ray films (Amersham).
Background: Immunoblotting shows a protein as a band on a membrane.

The subject of a further test is Bax. As to the kind of experiment: Western blot, Bax protein. In kind it is cell-based, human. To be noted: MCF-7, 1.25, 2.5 and 5 μM, 24 h, vs control cells.
Description: as §4, with “Among all caspases, caspase 7 is considered as one of the most crucial executioner caspases that mediate cell death, and its expression strongly correlates with apoptosis stimulation.” left out
(§5) MCF-7 cells were plated in six well plates at the density of 0.5 × 10^6 and kept for adherence for overnight. […] Total protein was measured by using Bio-Rad Bradford kit and then 35 µg of the total protein was run on a 12% SDS-PAGE and transferred to a nitrocellulose membrane. […] After incubation, membranes were washed three times with TBST buffer and then were ready for immunodetection. […]

In the next test the test system is Bcl-2. As to the kind of experiment: Western blot, Bcl-2 protein. The settings on record: MCF-7, 1.25, 2.5 and 5 μM, 24 h, vs control cells. The test is classed as cell-based, human.
Description: as §4, with “Among all caspases, caspase 7 is considered as one of the most crucial executioner caspases that mediate cell death, and its expression strongly correlates with apoptosis stimulation.” left out
as §5

For `COc1cccc2c(=O)n(-c3ccc(S(=O)(=O)NCC(=O)Nc4ccc(C)cc4)cc3)c(SCC(=O)Nc3ccc(C)cc3)nc12` [Compound 4d], the half-inhibitory concentration (IC50) – broadly, the concentration that inhibits the measured activity by half – with A549 (lung) cancer cells (48 h) worked out at 6.6 ± 0.22 µM; in the test on A549 (lung) cancer cells (Homo sapiens, A549, 48 h), 5.6 µM; in test [1], 9 ± 0.3 µM; in test [2] it was 6.87 ± 0.62 µM. Further, the values for the early apoptotic cells in the test with MCF-7 cells (1.25 µM), with MCF-7 cells (2.5 µM) and with MCF-7 cells (5 µM) were 44.45 ± 1.06%, 67.55 ± 1.34% and 83.75 ± 2.19%, respectively. Further, the “caspase 7 protein expression (Western blot)” value in the test on caspase 7 (MCF-7, 1.25 μM) turned out to be 3 fold; with caspase 7 (MCF-7, 2.5 μM), 3.3 fold; with caspase 7 (MCF-7, 5 μM) it was 3.9 fold. For the same compound, the “expression of Bax protein (Western blot, in words)” value in the test on Bax is “markedly increased”. In addition, the “expression of Bcl-2 protein (Western blot, in words)” value in the test with Bcl-2 is “downregulated in a dose-dependent manner”.
Turning to `CCc1cccc(NC(=O)CNS(=O)(=O)c2ccc(-n3c(SCC(=O)Nc4cccc(CC)c4)nc4c(OC)cccc4c3=O)cc2)c1` [Compound 4f, N-(3-ethylphenyl)-2-((3-(4-(N-(2-((3-ethylphenyl)amino)-2-oxoethyl)sulfamoyl)-phe-nyl)-8-methoxy-4-oxo-3,4-dihydroquinazolin-2yl)thio)acetamide], the IC50 in the test on A549 (lung) cancer cells (Homo sapiens, A549, 48 h) amounted to 10.1 ± 0.24 µM; in test [1], 11.7 ± 2 µM; in test [2], 9.76 ± 1.68 µM. For the same compound, the late apoptotic cells was found to be 15.4 ± 0.28% in the test on MCF-7 cells (1.25 µM), 31.05 ± 1.06% in the test on MCF-7 cells (2.5 µM) and 52.4 ± 0.28% in the test with MCF-7 cells (10 µM). Further, the “caspase 7 protein expression (Western blot)” value is given as 1.14 fold with caspase 7 (MCF-7, 1.25 μM); 1.2 fold in the test on caspase 7 (MCF-7, 2.5 μM); 1.5 fold in the test on caspase 7 (MCF-7, 5 μM). The “expression of Bax protein (Western blot, in words)” value with Bax is “markedly increased”. Moreover, the “expression of Bcl-2 protein (Western blot, in words)” value in the test with Bcl-2 is “downregulated in a dose-dependent manner”.
